Source: US20030162818A1, “Acylsulfonamide derivative” (AJINOMOTO CO. INC., priority 1997, published 2003)

Experiments:
[1] = target: T1, acetyl-CoA carboxylase (ACC) (Rattus norvegicus, UniProt P11497); assay: Measurement of ACC inhibition activity (14C-bicarbonate incorporation, ACC purified from rat liver); assay type: biochemical; details: 5.6 × 10^−6 M compound; ACC purified from SD rat liver
T1 construct: subjected to decapitation and bloodletting under ether anesthesia to quickly take out the liver; from tissue; host or cells: rat liver (male SD rat, fasted then fed a high-sucrose feed)
Method: After 2 days of fasting, a male SD rat of 12 weeks of age was allowed to feed on a high sucrose feed (67% sucrose, 17.1% casein, 9.8% cellulose, 5% sodium chloride, 0.1% choline chloride and 1% vitamins) for 2 days and then subjected to decapitation and bloodletting under ether anesthesia to quickly take out the liver. The thus obtained liver was sliced in an ice-cooled buffer A (225 mM mannitol, 75 mM sucrose, 10 mM Tris/HCl (pH 7.5), 0.05 mM EDTA-2Na, 5 mM potassium citrate, 2.5 mM MnCl2, 10 mg/l aprotinin, 10 mg/l leupeptin and 10 mg/l antitrypsin) and then, after removal of moisture, adjusted to 5 ml/g by adding the buffer A and homogenized for 4 minutes using Polytron homogenizer. This was centrifuged for 10 minutes at 1,000 g and then the resulting supernatant was subjected to 10 minutes of high speed centrifugation at 17,000 g.
Ammonium sulfate was added to the thus obtained supernatant to a final concentration of 35%, and the mixture was stirred for 45 minutes and then subjected to 10 minutes of high speed centrifugation at 17,000 g. The thus obtained precipitate was mixed with 100 ml of a buffer B (100 mM Tris/HCl (pH 7.5), 0.5 M NaCl, 1 mM EDTA-2Na, 0.1 mM DTT, 10% glycerol, 10 mg/l aprotinin, 10 mg/l leupeptin and 10 mg/l antitrypsin) and subjected to 20 minutes of ultracentrifugation at 40,000, and the resulting supernatant was dialyzed overnight against 150 volumes of a buffer C (100 mM Tris/HCl (pH 7.5), 0.5 M NaCl, 1 mM EDTA-2Na, 0.1 mM DTT and 10% glycerol) and then filtered through a 5 μm filter. The filtrate was applied to a biotin affinity column, washed with the buffer B and then eluted with the buffer B supplemented with 5 mM biotin.
2. Measurement of ACC Inhibition Activity
Each of the compounds produced in the Examples was dissolved in DMSO, and the solution was put into a glass vial, mixed with 250 μl of an ACC-containing reagent 1 (40 mM Tris/HCl (pH 7.5), 40 mM MgCl2, 40 mM sodium citrate, 2 mM DTT and 100 μg/ml fatty acid-free BSA),incubated at 37° C. for 30 minutes in a thermostatic chamber, cooled with ice, mixed with 250 μl of a reagent 2 (40 mM Tris/HCl (pH 7.5), 2 mM DTT, 8 mM ATP and 0.5 mM acetyl-CoA) containing 74 kBq of NaH^14CO3, again incubated at 37° C. for 10 minutes in a thermostatic chamber and then mixed with 0.1 ml of 1 N HCl to terminate the reaction. After complete removal of moisture in the glass vial under a reduced pressure, an emulsified scintillator (Cleasol I) was added to the glass vial, and the ^14C radioactivity was measured using a liquid scintillation counter. […]
Inhibition activity ratio (%)=(1−radioactivity when a drug to be tested is added/radioactivity when the drug to be rested is not added)×100

HepG2 cells = assay: Measurement of intracellular fatty acid synthesis inhibition activity (FA biosynthesis from [14C]-glucose); assay type: cell-based; details: Homo sapiens, 3.0 × 10^−5 M compound, 3 hours culture with [14C]-glucose
Method: Measurement of Intracellular Fatty Acid Synthesis Inhibition Activity (FA Biosynthesis Inhibition Activity)
Each of the compounds produced in the Examples was dissolved in DMSO and added to an experimental culture medium (DMEM; 0.05 μg/ml insulin, 0.1 mg/ml glucose and 18.5 kBq/ml [^14C]-glucose). The HepG2 cells were adjusted to a density of 0.75×10^6 cells/ml, inoculated into a 12 well plate in an amount of 1 ml/well and cultured overnight at 37° C. in an atmosphere of 5% CO2 (culture medium: DMEM, […] and 10% FBS), and the resulting cells were washed twice with PBS(−) buffer, mixed with the experimental culture medium in an amount of 0.5 ml/well and then cultured at 37° C. for 3 hours in an atmosphere of 5% CO2. After the culturing, the cells were washed twice with ice-cooled PBS(−) buffer and peeled off, and lipids were extracted from the resulting cells with a lipid extraction solution (chloroform:methanol=2:1). The extract was mixed with 2.5 ml of ethanol and 0.1 ml of 33% potassium hydroxide and incubated at 70° C. for 1 hour. Lipids were again extracted from the reaction mixture, and the extract was applied to a silica gel thin layer plate. This was developed with a developing solution (hexane:diethyl ether:acetic acid=80:20:1) and then the fatty acid iodine-coloring part was collected to measure its radioactivity using a liquid scintillation counter. The inhibition activity % (3.0×10^−5 M) of each compound was calculated.

SMILES: CCCCCCCCCC(=O)NS(=O)(=O)c1ccccc1NC(=O)c1cccc(OCCCCCCC)c1 [Example 37, N-[2-(3-Heptyloxybenzamido]benzenesulfonyl]decanamide]
- inhibition at 5.6 µM [1]: 83.6%
- inhibition at 30 µM (HepG2 cells): 64.3%
- melting point: 172 to 174 °C

SMILES: CCCCCCCCCC(=O)NS(=O)(=O)c1ccccc1NC(=O)c1cccc(OCc2ccccc2)c1 [Example 9, N-[2-(3-Benzyloxybenzamido)benzenesulfonyl]decanamide]
- inhibition at 5.6 µM [1]: 65%
- inhibition at 30 µM (HepG2 cells): 86.8%
- melting point: 85 to 86 °C

SMILES: CCCCCCCCCC(=O)NS(=O)(=O)c1ccccc1NC(=O)c1cccc(OCc2ccc([N+](=O)[O-])cc2)c1 [Example 22, N-[2-[3-(4-Nitrobenzyloxy)benzamido]benzenesulfonyl]decananide]
- inhibition at 5.6 µM [1]: 88.4%
- inhibition at 30 µM (HepG2 cells): 95.2%
- melting point: 145 to 148 °C

SMILES: CCCCCCCCCC(=O)NS(=O)(=O)c1ccccc1NC(=O)c1cccc(OCc2ccc(C(F)(F)F)cc2)c1 [Example 34, N-[2-[3-(4-Trifluoromethylbenzyloxy)benzamido]benzenesulfonyl]decanamide]
- inhibition at 5.6 µM [1]: 81.3%
- inhibition at 30 µM (HepG2 cells): 87.7%
- melting point: 164 °C

SMILES: CC(C)(C)c1ccc(COc2cccc(C(=O)Nc3ccccc3S(=O)(=O)NC(=O)/C=C/c3ccccc3)c2)cc1 [Example 13, N-[2-[3-(4-t-Butylbenzyloxy)benzamido]benzenesulfonyl]cinnamamide]
- inhibition at 5.6 µM [1]: 79.5%
- inhibition at 30 µM (HepG2 cells): 38.1%
- melting point: 110 to 111 °C

SMILES: CCCCCCCCCC(=O)NS(=O)(=O)c1ccccc1NC(=O)c1cccc(OCc2ccc(OC)cc2)c1 [Example 25, N-[2-[3-(4-methoxybenzyloxy)benzamido]benzenesulfonyl]decanamide]
- inhibition at 5.6 µM [1]: 81.6%
- inhibition at 30 µM (HepG2 cells): 92%
- melting point: 148 to 149 °C

SMILES: CCCCCCCCCC(=O)NS(=O)(=O)c1ccccc1NC(=O)c1cccc(OCc2ccc(C(C)(C)C)cc2)c1 [Example 31, N-[2-[3-(4-t-Butylbenzyloxy)benzamido]benzenesulfonyl]decanamide]
- inhibition at 5.6 µM [1]: 67.6%
- inhibition at 30 µM (HepG2 cells): 66.4%
- melting point: 132 to 133 °C

SMILES: C/C=C/C=C/C(=O)NS(=O)(=O)c1ccccc1NC(=O)c1ccc(C#Cc2ccccc2)cc1 [Example 43, trans-N-[2-(4-Phenylethynylbenzamido)benzenesulfonyl]-2,4-hexadienamide]
- inhibition at 5.6 µM [1]: 54.3%
- inhibition at 30 µM (HepG2 cells): 92.3%
- melting point: 208 to 209 °C

SMILES: CCCCCCCCCC(=O)NS(=O)(=O)c1ccccc1NC(=O)c1cccc(OCc2ccc(Cl)cc2)c1 [Example 19, N-[2-[3-(4-Chlorobenzyloxy)benzamido]benzenesulfonyl]decanamide]
- inhibition at 5.6 µM [1]: 83.3%
- inhibition at 30 µM (HepG2 cells): 90.5%
- melting point: 159 to 161 °C

SMILES: CCCCCCCCCC(=O)NS(=O)(=O)c1ccccc1NC(=O)c1ccc(C#Cc2ccccc2)cc1 [Example 40, N-[2-(4-Phenylethynylbenzamido)benzenesulfonyl]decanamide]
- inhibition at 5.6 µM [1]: 76%
- inhibition at 30 µM (HepG2 cells): 57.4%
- melting point: 155 to 156 °C
